ChEMBL document CHEMBL1201862, “PubChem BioAssay data set” (2004)
The source made the active and inactive calls.

Key:
Cytochrome P450 2D6 = Cytochrome P450 2D6 (Homo sapiens, UniProt P10635);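 note: CYP2D6 member of a cytochrome P450 panel assay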
Protein RecA = target: T1, Protein RecA (Mycobacterium tuberculosis, UniProt P9WHJ3); assay: Fluorescence Cell-Free Homogeneous Dose Retest to Identify Inhibitors of RecA-Intein Splicing Activity. [Related pubchem assays (depositor defined):AID2097, AID2223, AID489010, AID492950]; format: functional
T1 sequence (P9WHJ3 whole entry): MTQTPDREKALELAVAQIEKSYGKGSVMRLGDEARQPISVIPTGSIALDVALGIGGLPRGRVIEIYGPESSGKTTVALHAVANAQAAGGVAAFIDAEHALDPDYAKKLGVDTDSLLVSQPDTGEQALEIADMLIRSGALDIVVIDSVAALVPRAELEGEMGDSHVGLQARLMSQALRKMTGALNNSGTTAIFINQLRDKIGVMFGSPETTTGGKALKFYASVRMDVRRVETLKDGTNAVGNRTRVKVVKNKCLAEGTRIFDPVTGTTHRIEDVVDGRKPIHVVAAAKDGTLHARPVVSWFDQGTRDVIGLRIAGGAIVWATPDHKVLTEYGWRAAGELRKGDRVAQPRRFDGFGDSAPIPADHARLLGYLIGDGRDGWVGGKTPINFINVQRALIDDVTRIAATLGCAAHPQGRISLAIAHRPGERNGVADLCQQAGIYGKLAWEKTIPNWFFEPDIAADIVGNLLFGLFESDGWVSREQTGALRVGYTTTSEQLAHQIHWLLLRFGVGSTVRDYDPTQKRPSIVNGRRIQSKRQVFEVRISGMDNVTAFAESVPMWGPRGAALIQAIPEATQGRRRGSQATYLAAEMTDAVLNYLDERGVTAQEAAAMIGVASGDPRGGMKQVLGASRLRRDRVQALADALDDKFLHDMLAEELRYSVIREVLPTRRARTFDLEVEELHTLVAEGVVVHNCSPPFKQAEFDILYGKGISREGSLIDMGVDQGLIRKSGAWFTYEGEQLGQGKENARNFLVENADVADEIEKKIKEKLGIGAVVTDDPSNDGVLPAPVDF

[1] = target: T2, Replicative DNA helicase DnaB (Mycobacterium tuberculosis, UniProt P9WMR3); assay: DnaB intein splicing inhibitors, dose response, biochemical, cell-free fluorescence (AID 449749); format: functional
T2 sequence (P9WMR3 whole entry): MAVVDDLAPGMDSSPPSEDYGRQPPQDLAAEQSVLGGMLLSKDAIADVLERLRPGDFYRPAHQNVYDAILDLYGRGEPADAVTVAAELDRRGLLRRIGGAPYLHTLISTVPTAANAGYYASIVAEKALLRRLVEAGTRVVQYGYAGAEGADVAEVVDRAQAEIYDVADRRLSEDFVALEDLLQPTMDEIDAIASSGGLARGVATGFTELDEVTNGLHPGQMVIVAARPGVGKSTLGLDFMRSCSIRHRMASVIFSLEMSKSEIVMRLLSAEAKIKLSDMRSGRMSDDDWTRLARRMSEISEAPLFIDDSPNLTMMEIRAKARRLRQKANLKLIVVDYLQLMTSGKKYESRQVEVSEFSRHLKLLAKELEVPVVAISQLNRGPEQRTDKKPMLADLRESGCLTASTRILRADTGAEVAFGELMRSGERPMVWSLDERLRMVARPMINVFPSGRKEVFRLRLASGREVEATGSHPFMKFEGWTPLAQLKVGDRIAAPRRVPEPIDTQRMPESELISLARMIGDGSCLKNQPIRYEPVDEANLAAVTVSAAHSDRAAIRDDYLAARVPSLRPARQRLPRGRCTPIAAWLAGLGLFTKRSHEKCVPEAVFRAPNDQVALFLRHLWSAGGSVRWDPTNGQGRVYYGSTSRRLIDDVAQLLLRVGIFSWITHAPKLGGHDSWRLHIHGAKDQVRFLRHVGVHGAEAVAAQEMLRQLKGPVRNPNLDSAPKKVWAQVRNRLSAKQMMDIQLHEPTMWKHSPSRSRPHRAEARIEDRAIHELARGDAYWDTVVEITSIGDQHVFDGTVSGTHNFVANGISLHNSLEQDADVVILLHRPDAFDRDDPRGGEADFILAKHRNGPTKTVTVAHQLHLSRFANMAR

[2] = viability of HCT116 lacking mutant beta-catenin – cell-based, human colon tumor, dose response (AID 1045); format: functional;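 note: HCT116 colon tumor cells with beta catenin knocked out; cells exposed to compound for 60 hours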
[3] = viability of PTEN-deleted HCT116 cells – cell-based, HCT116 PTEN knockout, dose response (AID 1047); format: functional;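 note: HCT116 colon tumor cells with PTEN knocked out; cells exposed to compound for 60 hours before readout; potency for loss of cell viability measured by luminescence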
Cytochrome P450 2C9 [4] = target: T3, Cytochrome P450 2C9 (Homo sapiens, UniProt P11712)
Cytochrome P450 2C9 [5] = target: T3, Cytochrome P450 2C9; remark: listed apart in the source
Cytochrome P450 3A4 = Cytochrome P450 3A4 (Homo sapiens, UniProt P08684);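 note: CYP3A4 tested as one member of a cytochrome P450 panel screen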
[6] = Luminescence Cell-Based Dose Confirmation HTS to Identify Activators of 5'UTR Stem-Loop Driven Alpha-Synuclein mRNA Translation in H4 Neuroglioblastoma Cells. [Related pubchem assays: 1829 (Project Summary), 1814 (Primary HTS)]; format: functional
H4 = assay: Luminescence Cell-Based Dose Response HTS to Identify Activators of 5'UTR Stem-Loop Driven Prion Protein mRNA Translation in H4 Neuroglioblastoma Cells. [Related pubchem assays: 1829 (Project Summary), 1814 (Primary HTS)]; format: functional; conditions: Homo sapiens
[7] = Luminescence Cell-Based Dose Response HTS to Identify Activators of Luciferase Translation or Activity in H4 […] Cells. [Related pubchem assays: 1829 (Project Summary), 1814 (Primary HTS)]; format: functional
Protein skinhead-1 = target: T4, Protein skinhead-1 (Caenorhabditis elegans, UniProt P34707); format: functional
T4 sequence (P34707 whole entry): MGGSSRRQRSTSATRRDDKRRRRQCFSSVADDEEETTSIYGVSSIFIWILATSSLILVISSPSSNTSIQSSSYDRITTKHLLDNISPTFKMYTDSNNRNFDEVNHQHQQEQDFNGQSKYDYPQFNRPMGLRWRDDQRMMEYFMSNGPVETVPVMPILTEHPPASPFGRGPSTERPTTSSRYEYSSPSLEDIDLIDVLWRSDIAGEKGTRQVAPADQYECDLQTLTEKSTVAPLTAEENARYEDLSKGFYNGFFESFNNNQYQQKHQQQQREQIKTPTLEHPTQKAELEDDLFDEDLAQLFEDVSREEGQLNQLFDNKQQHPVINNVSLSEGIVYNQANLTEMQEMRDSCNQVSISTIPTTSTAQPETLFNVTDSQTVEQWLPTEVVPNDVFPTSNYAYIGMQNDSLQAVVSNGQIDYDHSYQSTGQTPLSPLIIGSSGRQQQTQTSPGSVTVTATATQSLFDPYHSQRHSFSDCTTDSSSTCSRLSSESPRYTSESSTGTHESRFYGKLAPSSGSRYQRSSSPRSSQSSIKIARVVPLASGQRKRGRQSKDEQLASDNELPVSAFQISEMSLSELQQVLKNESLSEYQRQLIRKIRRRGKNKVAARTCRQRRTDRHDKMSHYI

Streptococcus = assay: GAS UMAA2166 growth inhibition – luminescence, BacTiterGlo, counter-screen for streptokinase expression inhibitor project, dose response (AID 1915); format: functional, organism-based;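 note: potency for reduction of bacterial viability or growth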
[8] = system: Streptococcus sp. 'group A'; assay: Streptococcus pyogenes SK(-)GAS viability under kanamycin – luminescence, BacTiterGlo, confirmation, counter-screen for streptokinase expression inhibitor project, dose response (AID 1900); format: functional, organism-based
Cytochrome P450 2C19 = Cytochrome P450 2C19 (Homo sapiens, UniProt P33261); assay: Cytochrome panel assay with activity outcomes. Panel member name: p450-cyp2c19 Compounds with AC50 equal or less than 10 uM are considered active; format: functional; conditions: read-out: AC50
Cytochrome P450 1A2 = target: T5, Cytochrome P450 1A2 (Homo sapiens, UniProt P05177);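 note: PubChem cytochrome P450 panel assay, CYP1A2 panel member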
T5 sequence (P05177 whole entry): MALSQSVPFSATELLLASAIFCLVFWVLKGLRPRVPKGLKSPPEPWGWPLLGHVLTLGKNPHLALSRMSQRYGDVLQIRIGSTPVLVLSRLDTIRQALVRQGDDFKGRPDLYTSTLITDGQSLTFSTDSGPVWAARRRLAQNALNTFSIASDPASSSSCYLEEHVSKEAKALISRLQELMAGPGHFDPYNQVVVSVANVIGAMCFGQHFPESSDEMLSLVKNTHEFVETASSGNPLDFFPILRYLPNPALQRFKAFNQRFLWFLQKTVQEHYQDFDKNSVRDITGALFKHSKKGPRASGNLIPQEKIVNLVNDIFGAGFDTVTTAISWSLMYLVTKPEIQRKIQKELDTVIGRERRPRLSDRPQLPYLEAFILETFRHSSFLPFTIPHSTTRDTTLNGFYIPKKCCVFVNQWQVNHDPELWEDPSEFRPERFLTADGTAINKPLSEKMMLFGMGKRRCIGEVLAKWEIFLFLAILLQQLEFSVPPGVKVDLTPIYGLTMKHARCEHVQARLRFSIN

[9] = intracellular Trypanosoma cruzi inhibitors in host cells – cell-based, plate reader, cherry-pick samples, set 3, dose response (AID 651818); format: functional;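 note: compounds incubated with infected cells for about four days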
P388 = assay: cells; format: functional; conditions: Mus musculus;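 note: compound exposure lasted 48 hours before growth was measured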

T3 sequence (P11712 whole entry): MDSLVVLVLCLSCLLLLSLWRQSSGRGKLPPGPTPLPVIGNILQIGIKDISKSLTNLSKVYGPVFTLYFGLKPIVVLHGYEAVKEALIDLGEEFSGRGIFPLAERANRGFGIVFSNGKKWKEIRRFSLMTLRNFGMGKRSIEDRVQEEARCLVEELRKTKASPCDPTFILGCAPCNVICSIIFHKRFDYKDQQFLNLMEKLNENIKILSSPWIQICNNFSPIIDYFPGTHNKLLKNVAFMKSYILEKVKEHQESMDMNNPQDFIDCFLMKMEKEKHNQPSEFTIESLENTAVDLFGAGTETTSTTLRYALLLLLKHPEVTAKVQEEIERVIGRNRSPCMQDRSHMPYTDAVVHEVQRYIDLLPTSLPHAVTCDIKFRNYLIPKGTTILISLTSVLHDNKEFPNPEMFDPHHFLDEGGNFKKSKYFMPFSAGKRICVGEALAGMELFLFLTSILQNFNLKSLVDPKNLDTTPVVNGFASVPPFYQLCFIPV
Cytochrome P450 2D6, sequence (P10635 whole entry): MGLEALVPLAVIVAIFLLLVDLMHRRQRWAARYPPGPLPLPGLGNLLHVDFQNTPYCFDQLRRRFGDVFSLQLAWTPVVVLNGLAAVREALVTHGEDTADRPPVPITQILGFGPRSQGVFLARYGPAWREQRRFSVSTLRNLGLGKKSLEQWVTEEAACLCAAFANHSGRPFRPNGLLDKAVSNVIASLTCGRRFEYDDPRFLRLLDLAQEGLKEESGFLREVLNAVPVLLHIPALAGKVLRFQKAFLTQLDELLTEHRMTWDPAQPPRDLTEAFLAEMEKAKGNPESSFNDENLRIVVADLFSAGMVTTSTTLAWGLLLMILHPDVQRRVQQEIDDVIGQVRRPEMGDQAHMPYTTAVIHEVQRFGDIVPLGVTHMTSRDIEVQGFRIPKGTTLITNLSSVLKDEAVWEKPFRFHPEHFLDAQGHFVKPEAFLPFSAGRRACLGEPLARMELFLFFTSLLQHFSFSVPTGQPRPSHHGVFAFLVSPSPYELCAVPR
Cytochrome P450 2C19, sequence (P33261 whole entry): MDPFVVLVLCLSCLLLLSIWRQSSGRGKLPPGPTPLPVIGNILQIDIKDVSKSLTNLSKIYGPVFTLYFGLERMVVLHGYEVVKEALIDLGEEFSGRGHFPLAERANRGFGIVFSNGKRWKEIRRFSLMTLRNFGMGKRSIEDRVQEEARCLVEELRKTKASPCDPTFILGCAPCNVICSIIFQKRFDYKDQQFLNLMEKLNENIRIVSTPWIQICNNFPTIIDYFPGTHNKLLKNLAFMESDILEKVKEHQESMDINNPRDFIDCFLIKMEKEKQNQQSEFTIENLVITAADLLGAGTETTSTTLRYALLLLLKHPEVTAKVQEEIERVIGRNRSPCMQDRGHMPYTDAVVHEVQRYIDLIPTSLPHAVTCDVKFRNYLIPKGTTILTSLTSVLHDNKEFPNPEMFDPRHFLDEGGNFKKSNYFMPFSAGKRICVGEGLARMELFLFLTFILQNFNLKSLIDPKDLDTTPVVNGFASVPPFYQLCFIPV
Cytochrome P450 3A4, sequence (P08684 whole entry): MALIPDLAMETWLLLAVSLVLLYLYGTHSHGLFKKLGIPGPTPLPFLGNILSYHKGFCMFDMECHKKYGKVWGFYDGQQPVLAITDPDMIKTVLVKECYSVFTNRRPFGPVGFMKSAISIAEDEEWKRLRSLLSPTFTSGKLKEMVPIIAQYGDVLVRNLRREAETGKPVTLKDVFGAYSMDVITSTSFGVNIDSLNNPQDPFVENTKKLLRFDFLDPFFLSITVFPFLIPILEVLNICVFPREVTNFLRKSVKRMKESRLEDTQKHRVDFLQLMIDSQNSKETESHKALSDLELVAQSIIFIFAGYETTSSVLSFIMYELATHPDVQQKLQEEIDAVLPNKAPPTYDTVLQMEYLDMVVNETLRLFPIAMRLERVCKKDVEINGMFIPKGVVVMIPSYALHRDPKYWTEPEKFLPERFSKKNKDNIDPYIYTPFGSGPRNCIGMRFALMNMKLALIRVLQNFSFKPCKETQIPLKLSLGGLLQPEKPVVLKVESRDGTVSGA

C[N+](C)(C)C1=NNC2=Nc3ccccc3SC2=C1
AC50 (Cytochrome P450 2D6): 3.98 µM (inconclusive)

COc1cc(C2NC(=O)C(C#N)=C(Nc3cccc(C)c3)S2)ccc1O (stereo not given)
EC50 (Protein RecA): 20 µM (active)
AC50 [1]: 42 µM (active)

O=C(c1ccc([N+](=O)[O-])cc1)[C@@H](Br)[C@@H](Br)c1ccnc2ccccc12
AC50 (Cytochrome P450 2D6): 3.98 µM (inconclusive)

CCOC(=O)/C(=C/c1ccc(N2CCC(c3ccccc3)=N2)cc1)C(C)=O
EC50 [2]: 26.7 µM (active)
EC50 [3]: 0.014 µM (active)

CCn1c(COc2ccc(OC)cc2)nc2ccccc21
AC50 (Cytochrome P450 2C9 [4]): inconclusive
AC50 (Cytochrome P450 2D6): 17.8 µM (inconclusive)

CCOC(=O)CC1=NN(c2ccccc2)C(=O)C1
EC50 (Protein RecA): 10.1 µM (active)
AC50 [1]: 13.1 µM (active)

O=c1c(-c2cccs2)nc2cncnc2n1Cc1ccc(F)cc1
AC50 (Cytochrome P450 2C9 [5]): 1 µM (inconclusive)
AC50 (Cytochrome P450 2D6): 0.631 µM (inconclusive)

CCCCN1C(=O)C(O)(CC(=O)c2ccco2)c2cc(Br)ccc21 (stereo not given)
EC50 [2]: 5.01 µM (active)
EC50 [3]: 7.11 µM (active)

COCCNc1ncnc2ccc(-c3ccccc3OC)cc12
AC50 (Cytochrome P450 2D6): 39.8 µM (inconclusive)

COC(=O)[C@@]1(Cc2ccc(F)cc2)[C@H]2c3cc(C(=O)N(C)C)n(Cc4ccc(C)c(F)c4F)c3C[C@H]2CN1C(=O)c1ccccc1
AC50 (Cytochrome P450 2D6): 20 µM (inconclusive)

CN(C)C(=O)c1ccc(-c2nc(Nc3ccc(F)cc3)c3ccccc3n2)cc1
AC50 (Cytochrome P450 3A4): 20 µM (inconclusive)
AC50 (Cytochrome P450 2D6): 25.1 µM (inconclusive)

CC(C)c1n[nH]c2c1C(c1cccs1)C(C#N)=C(N)O2 (stereo not given)
EC50 (Protein RecA): 4.29 µM (active)
AC50 [1]: 10.8 µM (active)

CCOC(=O)c1cc2cc3ccccc3cc2[nH]1
EC50 [6]: 0.164 µM (active)
EC50 (H4): > 120 µM (not active)
EC50 [7]: 0.191 µM (active)
IC50 (Protein skinhead-1): > 100 µM (inactive)
EC50 (Protein RecA): > 380 µM (inactive)

O=C(Cn1cc(C(=O)c2ccco2)c2ccccc21)NCc1ccco1
AC50 (Cytochrome P450 2D6): 22.4 µM (inconclusive)

COC(=O)c1cc([N+](=O)[O-])c(-n2ccnc2)c([N+](=O)[O-])c1
EC50 (Protein RecA): 4.53 µM (active)
AC50 [1]: 6.54 µM (active)

COc1cc2cc(/C=C/C(=O)c3ccco3)c(Cl)nc2cc1OC
EC50 [2]: 10.1 µM (active)
EC50 [3]: 11.6 µM (active)

CCOC(=O)CSC1=C(C#N)C(c2sccc2C)C(C(C)=O)=C(C)N1 (stereo not given)
AC50 (Cytochrome P450 2D6): 35.5 µM (inconclusive)

CCOc1cc(/C=C2/C(=N)N3OC(C)=CC3=NC2=O)ccc1O
EC50 (Protein RecA): 26.9 µM (active)
AC50 [1]: 95.1 µM (active)

COc1cc(C2(c3ccc(O)c(OC)c3)C(=O)Nc3c(Br)cc(Br)cc32)ccc1O
EC50 (Protein RecA): 4.77 µM (active)
AC50 [1]: 3.13 µM (active)

O=C(N/N=C/c1c[nH]c2ccccc12)c1cc(-c2ccc(-c3ccccc3)cc2)[nH]n1
EC50 [6]: 0.219 µM (active)
EC50 (H4): > 120 µM (not active)
EC50 (Streptococcus): 1.56 µM (active)
EC50 [7]: 0.166 µM (active)
EC50 [8]: 3.46 µM (active)
AC50 (Cytochrome P450 2C19): 6.31 µM (inconclusive)
AC50 (Cytochrome P450 1A2): 3.16 µM (inconclusive)
AC50 (Cytochrome P450 2C9 [4]): inconclusive
EC50 [2]: 8.8 µM (active)
EC50 [3]: 5.81 µM (active)

COc1cccc(/C=N/NC(=O)CNC(=O)C2COc3ccccc3O2)c1O (stereo not given)
EC50 [2]: 10.9 µM (active)
EC50 [3]: 13.1 µM (active)

Cc1ccc(S(=O)(=O)Nc2cccc3c2O[C@H](CN(C)C(=O)Nc2ccc4c(c2)OCO4)[C@H](C)CN([C@H](C)CO)C3=O)cc1
AC50 [9]: 20 µM (inactive)

COc1ccc(CN(C)C[C@@H]2Oc3ccc(NC(=O)Cc4ccccc4)cc3CC(=O)N([C@@H](C)CO)C[C@@H]2C)cc1
AC50 [9]: 4.08 µM (active)

C[C@@H]1CN([C@H](C)CO)C(=O)Cc2cc(NC(=O)Nc3ccccc3)ccc2O[C@@H]1CN(C)Cc1ccc(C(=O)Nc2ccccc2N)cc1
AC50 [9]: 3.23 µM (active)

C[C@@H]1CN([C@H](C)CO)C(=O)Cc2cc(NC(=O)Nc3ccc(F)cc3)ccc2O[C@H]1CN(C)Cc1ccc(C(F)(F)F)cc1
AC50 [9]: 7.02 µM (active)

CCOC(=O)/C=c1\s/c(=C\c2ccc(C(F)(F)F)cc2)c(=O)n1CC(=O)NCc1ccco1
EC50 [2]: 45.9 µM (active)
EC50 [3]: 35.9 µM (active)

COc1ccc2c3c(c4cc(OC)c(OC)cc4c2c1)C[C@H]1CCCCN1C3 [CRYPTOPLEURINE]
GI50 (P388): 0.005 µM (active)

COc1cc2c(cc1OC)-c1cc3ccc(OC)c(OC)c3c[n+]1CC2 [PALMITINE]
AC50 (Cytochrome P450 2D6): 12.6 µM (inconclusive)
